According to patent US20260008817A1, “CYCLIC PEPTIDE OR SALT THEREOF, AND USES THEREOF” (FUJIFILM Corporation, priority 2023, published 2026):
Non-standard residues stand in square brackets, D forms with d. No end group written: not given here. hCys = N[C@@H](CCS)C(=O)O; Orn = NCCC[C@H](N)C(=O)O

Assays:
[1] = test system: hMSC-Human Mesenchymal Stem Cells; assay: Mesenchymal stem cell (MSC) proliferation-promoting effect; assay type: cell-based; details: 0.001 to 3 nmol/L, compared with bFGF at the same molar ratio; FIG. 3
Method: The mesenchymal stem cell (MSC) proliferation-promoting effect of the cyclic peptide complex was evaluated.
The MSC was activated and subcultured according to the recommended protocol of FUJIFILM Irvine Scientific, Inc. using hMSC-Human Mesenchymal Stem Cells (Lonza, PT-2501) and PRIME-XV MSC Expansion XSFM (FUJIFILM Irvine Scientific, Inc., 91149) as a culture medium. MSCs that had been subcultured 1 to 4 times were used for the evaluation.
The evaluation of the proliferation-promoting effect of MSC was performed by the following method. First, a culture medium (hereinafter, referred to as a custom culture medium) in which bFGF was removed from PRIME-XV MSC Expansion XSFM (FUJIFILM Irvine Scientific, Inc., 91149) was prepared. Next, Prime-XV Human Fibronectin (FUJIFILM Irvine Scientific, Inc., 31002) was dissolved in PBS (Fujifilm Wako Pure Chemical Corporation, 164-23551), 2 μg/cm^2 of the solution was added to a 96-well plate used for evaluation, and the 96-well plate was allowed to stand at room temperature for 3 hours to coat the 96-well plate with fibronectin. […] The number of viable cells was calculated from the imaging data and normalized by setting the number of viable cells in the well to which 1 nmol/L bFGF was added to 100, and setting the number of viable cells in the negative control well to 0.

[2] = test system: hMSC-Human Mesenchymal Stem Cells; assay: Effect of maintaining MSC undifferentiated potency (gene expression); assay type: cell-based; details: cyclic peptide complex 10 nmol/L, bFGF 1 nmol/L, normalized to 1 nmol/L bFGF = 1, FIG. 4
Method: The effect of maintaining mesenchymal stem cell (MSC) undifferentiated potency of the cyclic peptide complex was evaluated.
MSC was prepared in the same manner as in Example 7.
The evaluation of the effect of maintaining the MSC undifferentiated potency was performed by the following method. First, a culture medium (hereinafter, referred to as a custom culture medium) in which bFGF was removed from PRIME-XV MSC Expansion XSFM (FUJIFILM Irvine Scientific, Inc., 91149) was prepared. Next, Prime-XV Human Fibronectin (FUJIFILM Irvine Scientific, Inc., 31002) was dissolved in PBS (Fujifilm Wako Pure Chemical Corporation, 164-23551), 2 μg/cm^2 of the solution was added to a 12-well plate used for proliferation, and the 12-well plate was allowed to stand at room temperature for 3 hours to coat the 12-well plate with fibronectin. Thereafter, the MSCs subjected to the subculture were peeled using Tryple Express (Thermo, 12604-013), washed once with a custom culture medium, suspended in a custom culture medium in which a cyclic peptide complex or bFGF (R&D Systems, 3718-GMP) was diluted to final concentrations of 10 nmol/L and 1 nmol/L, and seeded on a 12-well plate coated with fibronectin. In this case, conditions in which the cyclic peptide complex and bFGF were not added as a negative control were prepared. After culturing at 37° C. (5% CO2) for 2 nights, the culture medium was replaced by removing the supernatant of the culture medium and adding the same amount of a culture medium prepared to have the same composition as the removed culture medium. After further culturing at 37° C. (5% CO2) for 2 nights, RNA was extracted using an RNeasy Plus Mini Kit (Qiagen, 74136) according to the manufacturer's protocol. […] The expression level of each gene was normalized by setting the expression level of the well to which 1 nmol/L bFGF was added to 1.

Bovine myoblasts = assay: Bovine myoblast proliferation-promoting effect; assay type: cell-based, Japanese Black cattle; details: 0.03 to 10 nmol/L complex versus 30 ng/mL bFGF, 4 days; FIG. 5
Method: The bovine cells (myoblasts) proliferation-promoting effect of the cyclic peptide complex was evaluated.
Bovine myoblasts were separated from bovine muscle tissue by the following method. First, muscle tissue of Japanese Black cattle was finely chopped in HBSS(−) (phenol red-free) (FUJIFILM Wako Pure Chemical Corporation, 085-09355), and then pronase from Streptomyces griseus (Sigma-Aldrich, 10165921001) was added thereto to a final concentration of 1 mg/mL, and the mixture was allowed to stand at 37° C. for 1 hour. After allowing to stand, HBSS containing 10% FBS was added thereto, and the cells were acquired by centrifugation. The acquired cells were suspended in D-MEM (high glucose) (containing L-glutamine and phenol red) (FUJIFILM Wako Pure Chemical Corporation, 044-29765) containing 10% final concentration of bovine serum and 30 ng/mL bFGF. Suspended cells were cultured in a culture flask coated with an iMatrix-511 solution (FUJIFILM Wako Pure Chemical Corporation, 381-07363) at 0.55 μg/cm^2. […]
The evaluation of the proliferation-promoting effect on bovine myoblasts was performed by the following method. […] The number of viable cells was calculated from the imaging data and normalized by setting the number of viable cells in the well to which 30 ng/mL bFGF was added to 100, and setting the number of viable cells in the negative control well to 0.

F-(Orn(acetyl))-VYTFDAHAHSLDAALN-(Hcy)-I (F[Orn]VYTFDAHAHSLDAALN[hCys]IF[Orn]VYTFDAHAHSLDAALN[hCys]I-NH2; thioether (positions not given here); not fully specified (residues 2, 22, bridges); also: dimer of two 20-mers crosslinked via Bis-NHS-PEG13 between side-chain amino groups, C-terminal amide on each monomer) [SEQ ID NO: 346, cyclic peptide complex; C-terminal amidation, amide crosslinking between side chain amino groups of N via Bis-NHS-PEG13]
MSC proliferation-promoting effect [1]: same degree of MSC proliferation-promoting effect as bFGF
expression level of Sox2 [2]: same degree of a gene expression level as bFGF
proliferation-promoting effect on bovine myoblasts (Bovine myoblasts): comparable to or higher than that of bFGF
